Reference: PubChem BioAssay AID1259407 (Chemical Carcinogenesis Research Information System (CCRIS), 2018)
The source made the active and inactive calls. The rule behind the calls is not given here.

Test system: CCRIS mutagenicity, Ames/micronucleus/aberration tests
Assay: CCRIS mutagenicity studies
[1] = Test System: AMES SALMONELLA TYPHIMURIUM, Strain/Indicator: TA97, Metabolic Activation: NONE, Method: PREINCUBATION
[2] = Test System: AMES SALMONELLA TYPHIMURIUM, Strain/Indicator: TA98, Metabolic Activation: NONE, Method: PREINCUBATION
[3] = Test System: AMES SALMONELLA TYPHIMURIUM, Strain/Indicator: TA100, Metabolic Activation: NONE, Method: PREINCUBATION
[4] = Test System: AMES SALMONELLA TYPHIMURIUM, Strain/Indicator: TA1535, Metabolic Activation: NONE, Method: PREINCUBATION
[5] = Test System: AMES SALMONELLA TYPHIMURIUM, Strain/Indicator: TA1537, Metabolic Activation: NONE, Method: PREINCUBATION
[6] = Test System: MOUSE LYMPHOMA, Strain/Indicator: L5178Y (TK+/TK-), Metabolic Activation: NONE, Method: SUSPENSION/PLATE
[7] = Test System: MOUSE LYMPHOMA, Strain/Indicator: L5178Y (TK+/TK-), Metabolic Activation: RAT, LIVER, S-9, AROCLOR 1254, Method: SUSPENSION/PLATE

## O=C(O)C(=O)O
[1]
  mutagenic call: inactive; negative
Test System: AMES SALMONELLA TYPHIMURIUM, Strain/Indicator: TA97, Metabolic Activation: RAT, LIVER, S-9, PHENOBARBITAL AND 5,6-BENZOFLAVONE, Method: PREINCUBATION
  mutagenic call: inactive; negative
Test System: AMES SALMONELLA TYPHIMURIUM, Strain/Indicator: TA97, Metabolic Activation: S-9, Method: PREINCUBATION
  mutagenic call: inactive; negative
[2]
  mutagenic call: inactive; negative
Test System: AMES SALMONELLA TYPHIMURIUM, Strain/Indicator: TA98, Metabolic Activation: RAT, LIVER, S-9, PHENOBARBITAL AND 5,6-BENZOFLAVONE, Method: PREINCUBATION
  mutagenic call: inactive; negative
Test System: AMES SALMONELLA TYPHIMURIUM, Strain/Indicator: TA98, Metabolic Activation: RAT, LIVER, S-9, SODIUM PHENOBARBITAL AND 5,6-BENZOFLAVONE, Method: PREINCUBATION
  mutagenic call: inactive; negative
[3]
  mutagenic call: inactive; negative
Test System: AMES SALMONELLA TYPHIMURIUM, Strain/Indicator: TA100, Metabolic Activation: NONE, Method: PREINCUBATION (11 HR GROWTH PERIOD FOR BACTERIA)
  mutagenic call: active; positive
Test System: AMES SALMONELLA TYPHIMURIUM, Strain/Indicator: TA100, Metabolic Activation: RAT, LIVER, S-9, PCB, Method: PREINCUBATION (11 HR GROWTH PERIOD FOR BACTERIA)
  mutagenic call: inactive; negative
Test System: AMES SALMONELLA TYPHIMURIUM, Strain/Indicator: TA100, Metabolic Activation: RAT, LIVER, S-9, PHENOBARBITAL AND 5,6-BENZOFLAVONE, Method: PREINCUBATION
  mutagenic call: inactive; negative
Test System: AMES SALMONELLA TYPHIMURIUM, Strain/Indicator: TA100, Metabolic Activation: RAT, LIVER, S-9, SODIUM PHENOBARBITAL AND 5,6-BENZOFLAVONE, Method: PREINCUBATION
  mutagenic call: inactive; negative
Test System: AMES SALMONELLA TYPHIMURIUM, Strain/Indicator: TA102, Metabolic Activation: NONE, Method: PREINCUBATION (5, 7 OR 11 HR GROWTH PERIOD FOR BACTERIA)
  mutagenic call: active; positive
Test System: AMES SALMONELLA TYPHIMURIUM, Strain/Indicator: TA102, Metabolic Activation: RAT, LIVER, S-9, PCB, Method: PREINCUBATION (5 OR 7 HR GROWTH PERIOD FOR BACTERIA)
  mutagenic call: inactive; negative
Test System: AMES SALMONELLA TYPHIMURIUM, Strain/Indicator: TA102, Metabolic Activation: RAT, LIVER, S-9, PHENOBARBITAL AND 5,6-BENZOFLAVONE, Method: PREINCUBATION
  mutagenic call: inactive; negative
Test System: AMES SALMONELLA TYPHIMURIUM, Strain/Indicator: TA102, Metabolic Activation: RAT, LIVER, S-9, SODIUM PHENOBARBITAL AND 5,6-BENZOFLAVONE, Method: PREINCUBATION
  mutagenic call: inactive; negative
Test System: AMES SALMONELLA TYPHIMURIUM, Strain/Indicator: TA102, Metabolic Activation: S-9, Method: PREINCUBATION
  mutagenic call: inactive; negative
Test System: AMES SALMONELLA TYPHIMURIUM, Strain/Indicator: TA104, Metabolic Activation: NONE, Method: PREINCUBATION
  mutagenic call: inactive; negative
Test System: AMES SALMONELLA TYPHIMURIUM, Strain/Indicator: TA104, Metabolic Activation: RAT, LIVER, S-9, PHENOBARBITAL AND 5,6-BENZOFLAVONE, Method: PREINCUBATION
  mutagenic call: inactive; negative
Test System: AMES SALMONELLA TYPHIMURIUM, Strain/Indicator: TA104, Metabolic Activation: RAT, LIVER, S-9, SODIUM PHENOBARBITAL AND 5,6-BENZOFLAVONE, Method: PREINCUBATION
  mutagenic call: inactive; negative
[4]
  mutagenic call: inactive; negative
Test System: AMES SALMONELLA TYPHIMURIUM, Strain/Indicator: TA1535, Metabolic Activation: RAT, LIVER, S-9, SODIUM PHENOBARBITAL AND 5,6-BENZOFLAVONE, Method: PREINCUBATION
  mutagenic call: inactive; negative
[5]
  mutagenic call: inactive; negative
Test System: AMES SALMONELLA TYPHIMURIUM, Strain/Indicator: TA1537, Metabolic Activation: RAT, LIVER, S-9, SODIUM PHENOBARBITAL AND 5,6-BENZOFLAVONE, Method: PREINCUBATION
  mutagenic call: inactive; negative
Test System: E. COLI, Strain/Indicator: WP2UVRA/PKM101, Metabolic Activation: NONE, Method: PREINCUBATION
  mutagenic call: inactive; negative
Test System: E. COLI, Strain/Indicator: WP2UVRA/PKM101, Metabolic Activation: RAT, LIVER, S-9, SODIUM PHENOBARBITAL AND 5,6-BENZOFLAVONE, Method: PREINCUBATION
  mutagenic call: inactive; negative
Test System: E. COLI, Strain/Indicator: WP2UVRA, Metabolic Activation: NONE, Method: PREINCUBATION
  mutagenic call: inactive; negative
Test System: E. COLI, Strain/Indicator: WP2UVRA, Metabolic Activation: RAT, LIVER, S-9, SODIUM PHENOBARBITAL AND 5,6-BENZOFLAVONE, Method: PREINCUBATION
  mutagenic call: inactive; negative

## O=C(Nc1ccc2c(c1)C=C(S(=O)(=O)O)/C(=N/Nc1ccc(N=Nc3ccc(S(=O)(=O)O)cc3)cc1S(=O)(=O)O)C2=O)Nc1ccc2c(c1)C=C(S(=O)(=O)O)/C(=N/Nc1ccc(N=Nc3ccc(S(=O)(=O)O)cc3)cc1S(=O)(=O)O)C2=O
[6]
  mutagenic call: inactive; negative. reevaluation of results: negative
[7]
  mutagenic call: inactive; negative. reevaluation of results: negative

## Cc1cc(N)c(S(=O)(=O)O)cc1Cl
[2]
  mutagenic call: inactive; negative
Test System: AMES SALMONELLA TYPHIMURIUM, Strain/Indicator: TA98, Metabolic Activation: RAT, LIVER, S-9, KC 500, Method: PREINCUBATION
  mutagenic call: inactive; negative
[3]
  mutagenic call: inactive; negative
Test System: AMES SALMONELLA TYPHIMURIUM, Strain/Indicator: TA100, Metabolic Activation: RAT, LIVER, S-9, KC 500, Method: PREINCUBATION
  mutagenic call: inactive; negative
[4]
  mutagenic call: inactive; negative
Test System: AMES SALMONELLA TYPHIMURIUM, Strain/Indicator: TA1535, Metabolic Activation: RAT, LIVER, S-9, KC 500, Method: PREINCUBATION
  mutagenic call: inactive; negative
[5]
  mutagenic call: inactive; negative
Test System: AMES SALMONELLA TYPHIMURIUM, Strain/Indicator: TA1537, Metabolic Activation: RAT, LIVER, S-9, KC 500, Method: PREINCUBATION
  mutagenic call: inactive; negative
Test System: AMES SALMONELLA TYPHIMURIUM, Strain/Indicator: TA1538, Metabolic Activation: NONE, Method: PREINCUBATION
  mutagenic call: inactive; negative
Test System: AMES SALMONELLA TYPHIMURIUM, Strain/Indicator: TA1538, Metabolic Activation: RAT, LIVER, S-9, KC 500, Method: PREINCUBATION
  mutagenic call: inactive; negative
Test System: E. COLI, Strain/Indicator: WP2 UVRA, Metabolic Activation: NONE, Method: PREINCUBATION
  mutagenic call: inactive; negative
Test System: E. COLI, Strain/Indicator: WP2 UVRA, Metabolic Activation: RAT, LIVER, S-9, KC 500, Method: PREINCUBATION
  mutagenic call: inactive; negative

## Cc1cc(C)c(N=Nc2c(O)c(S(=O)(=O)O)cc3cc(S(=O)(=O)O)ccc23)cc1C
Test System: AMES SALMONELLA TYPHIMURIUM, Strain/Indicator: TA100, Metabolic Activation: HAMSTER, LIVER, S-9, Method: PREINCUBATION (PRIVAL METHOD)
  mutagenic call: active; positive
[6]
  mutagenic call: active; positive. reevaluation of results: equivocal
[7]
  mutagenic call: active; positive. reevaluation of results: equivocal

## CN(C)CCOc1ccc(/C(=C(/CCCl)c2ccccc2)c2ccccc2)cc1
End Point: IN VITRO CHROMOSOMAL ABERRATIONS, Test System: SYRIAN HAMSTER EMBRYO (SHE) CELLS, Metabolic Activation: NONE
  mutagenic call: active; positive (ploidy changes)

## CCOC(=O)CC(C)C
[1]
  mutagenic call: inactive; negative
Test System: AMES SALMONELLA TYPHIMURIUM, Strain/Indicator: TA97, Metabolic Activation: RAT, LIVER, S-9, AROCLOR 1254, Method: PREINCUBATION
  mutagenic call: inactive; negative
Test System: AMES SALMONELLA TYPHIMURIUM, Strain/Indicator: TA102, Metabolic Activation: NONE, Method: PREINCUBATION
  mutagenic call: inactive; negative
Test System: AMES SALMONELLA TYPHIMURIUM, Strain/Indicator: TA102, Metabolic Activation: RAT, LIVER, S-9, AROCLOR 1254, Method: PREINCUBATION
  mutagenic call: inactive; negative

## Cn1c(N)nc2ccc(C#N)cc21
Test System: AMES SALMONELLA TYPHIMURIUM, Strain/Indicator: TA98, Metabolic Activation: RAT, LIVER, S-9, AROCLOR 1254, Method: PREINCUBATION
  mutagenic call: active; positive

## CCCCOc1ccc(N=O)cc1
Test System: AMES SALMONELLA TYPHIMURIUM, Strain/Indicator: TA100, Metabolic Activation: NONE, Method: STANDARD PLATE
  mutagenic call: active; positive

## CCOC(=O)N(N=O)C(CCC=O)c1cccnc1 (stereo not drawn)
[3]
  mutagenic call: active; positive

## CCCCN(C(CCC)OC(C)=O)[N+](=O)[O-] (stereo not drawn)
Test System: E. COLI, Strain/Indicator: WP2 (HCR-), Metabolic Activation: NONE
  mutagenic call: active; positive
